Tests used:
Test in all cases: In vitro MMP inhibition analysis (fluorogenic peptide substrate cleavage), Ki
Type in all cases: biochemical
[1] = molecular target: T1, Human recombinant MMP-1 (Homo sapiens, UniProt P03956)
T1 construct: made in house; host or cells: MMP-1-transfected HT-1080 cells (spent media)
T1 sequence (P03956 100-469): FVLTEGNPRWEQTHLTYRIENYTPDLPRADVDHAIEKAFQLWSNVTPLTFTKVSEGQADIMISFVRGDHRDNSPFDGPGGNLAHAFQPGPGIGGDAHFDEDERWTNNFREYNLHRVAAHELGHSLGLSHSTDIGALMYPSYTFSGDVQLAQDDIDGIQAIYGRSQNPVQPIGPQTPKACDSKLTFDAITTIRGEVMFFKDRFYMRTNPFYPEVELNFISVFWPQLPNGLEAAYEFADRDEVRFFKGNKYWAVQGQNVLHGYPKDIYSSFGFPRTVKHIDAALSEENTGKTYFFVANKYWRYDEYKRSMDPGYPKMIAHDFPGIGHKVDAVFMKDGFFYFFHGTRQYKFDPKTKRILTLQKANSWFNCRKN
Protocol: (§1) Several compounds and salts were analyzed in an in vitro assay to determine their ability to inhibit the MMP cleavage of peptide substrates. Inhibition constant (Ki) were calculated from the assayed compound-MMP interactions.
(§2) Human recombinant MMP-1, MMP-2, MMP-9, MMP-13, and MMP-14 were used in this assay. All enzymes were prepared in Assignee's laboratories following usual laboratory procedures. Protocols for the preparation and use of these enzymes are available in the scientific literature. See, e.g., Enzyme Nomenclature (Academic Press, San Diego, Calif., 1992) (and the citations therein). See also, Frije et al., J. Biol. Chem., 26(24), 16766-73 (1994).
The MMP-1 proenzyme was purified from the spent media of MMP-1-transfected HT-1080 cells provided by Dr. Harold Welgus of Washington University (St. Louis, Mo.). The protein was purified on a zinc chelating column.
(§3) All MMPs were activated using 4-aminophenylmercuric acetate (“APMA”, Sigma Chemical, St. Louis, Mo.) or trypsin. MMP-9 also was activated using human recombinant MMP-3 (purified in Assignee's laboratory following standard cloning and purification techniques).
(§4) The following fluorogenic, methoxycoumarin-containing polypeptide substrate (I) was used in the MMP inhibition assays: MCA-ArgProLeuGlyLeuDpaAlaArgGluArgNH2 (I) “MCA” is 7-methoxycoumarin-4-yl acetyl. Substrate (I) was prepared Assignee's laboratory. In the absence of MMP inhibitory activity, the substrate is cleaved at the Gly-Leu peptide bond. This cleavage separates the highly fluorogenic peptide from the 2,4-dinitrophenyl quencher, thus resulting in increase of fluorescent intensity.
(§5) The stock solutions of the assayed compounds and salts were prepared in […] (DMSO). These stock solutions were diluted in Buffer A (100 mM Tris-HCl, 100 mM NaCl, 10 mM CaCl2, 0.05% polyoxyethylene 23 lauryl ether, pH 7.5) to obtain solutions with different compound concentrations, i.e., assay solutions with different concentrations of the assayed […] compound. The experiment controls contained the same amount of Buffer A/DMSO as the assayed sample, but contained none of the tested compound or salt.
(§6) The assays from which the Ki determinations were made were performed as follows. The assayed compound samples were incubated in separate wells of untreated white polystyrene plates (Nunc Nalgene International, Rochester, N.Y.), and analyzed on a Tecan SpectraFlour Plus plate reader. The excitation wavelength was 330 nm, and the emission wavelength—420 nm. All samples (assayed compounds and controls) were incubated in separate plate wells at room temperature for 1 hr in the presence of 4 μM of MMP substrate (I). In the absence of MMP inhibitory activity, substrate (I) was cleaved at the Gly-Leu bond resulting in an increase of relative fluorescence. Inhibition was observed as a reduced rate of this increase in relative fluorescence. […] This protocol is a modification of method by Knight et al., FEBS Lett., 296(3), 263-266 (1992). Apparent inhibitory constants were determined by non-linear regression of reaction velocity as a function of inhibitor and enzyme concentration using Morrison's equation, as described by Kuzmic, Anal. Biochem. 286, 45-50 (2000). Modifications were made in the non-linear regression method to allow a common control reaction rate and effective enzyme concentration to be shared between all dose-response relationships on a given assay plate. Since the substrate concentration was chosen to be at or below the Km, the apparent Ki's from this analysis were reported as Ki's without correction for the influence of substrate.
(§7) The above protocols were used to determine Ki constants for the compounds in Examples 2-35 above. All Ki values in Table 1 are given in nM units.

[2] = molecular target: T2, Human recombinant MMP-2 (Homo sapiens, UniProt P08253)
T2 construct: made in house; host or cells: MMP-2-transfected p2AHT2 cells
T2 sequence (P08253 110-660): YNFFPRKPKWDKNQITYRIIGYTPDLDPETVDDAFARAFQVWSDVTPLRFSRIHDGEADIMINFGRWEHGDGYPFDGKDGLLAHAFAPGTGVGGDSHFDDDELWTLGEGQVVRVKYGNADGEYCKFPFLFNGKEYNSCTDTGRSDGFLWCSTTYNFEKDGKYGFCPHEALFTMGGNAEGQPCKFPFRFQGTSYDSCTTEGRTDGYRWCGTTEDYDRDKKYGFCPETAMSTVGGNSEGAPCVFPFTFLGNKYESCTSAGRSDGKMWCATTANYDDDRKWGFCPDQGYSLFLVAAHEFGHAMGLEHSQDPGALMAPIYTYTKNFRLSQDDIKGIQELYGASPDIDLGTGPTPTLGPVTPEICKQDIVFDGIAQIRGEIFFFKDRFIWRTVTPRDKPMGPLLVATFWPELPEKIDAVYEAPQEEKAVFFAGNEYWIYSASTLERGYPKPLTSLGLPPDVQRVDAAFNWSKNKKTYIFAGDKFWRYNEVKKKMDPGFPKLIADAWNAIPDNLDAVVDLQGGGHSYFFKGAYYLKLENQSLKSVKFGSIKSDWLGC
Protocol: as §1, §2
The MMP-2 proenzyme was purified by gelatin Sepharose chromatography from MMP-2-transfected p2AHT2 cells provided by Dr. Gregory Goldberg of Washington University (St. Louis, Mo.).
as §3, §4, §5, §6, §7

[3] = molecular target: T3, Human recombinant MMP-9 (Homo sapiens, UniProt P14780)
T3 construct: made in house; host or cells: MMP-9-transfected HT1080 cells (spent media)
Protocol: as §1, §2
The MMP-9 proenzyme was purified by gelatin Sepharose chromatography from spent media of MMP-9-transfected HT1080 cells provided by Dr. Howard Welgus of Washington University (St. Louis, Mo.).
as §3, §4, §5, §6, §7

[4] = molecular target: T4, Human recombinant MMP-14 (Homo sapiens, UniProt P50281)
T4 construct: The catalytic domain enzyme was expressed in E. coli inclusion bodies, solubilized in urea; made in house
Protocol: as §1, §2
The MMP-14 full length cDNA was provided by Dr. Gregory Goldberg of Washington University (St. Louis, Mo.). The catalytic domain enzyme was expressed in E. coli inclusion bodies, solubilized in urea, purified on a preparative […] reverse phase HPLC column, and then refolded in the presence of zinc acetate and purified for use.
as §3, §4, §5, §6, §7

T3 sequence (P14780 107-707 limits assumed): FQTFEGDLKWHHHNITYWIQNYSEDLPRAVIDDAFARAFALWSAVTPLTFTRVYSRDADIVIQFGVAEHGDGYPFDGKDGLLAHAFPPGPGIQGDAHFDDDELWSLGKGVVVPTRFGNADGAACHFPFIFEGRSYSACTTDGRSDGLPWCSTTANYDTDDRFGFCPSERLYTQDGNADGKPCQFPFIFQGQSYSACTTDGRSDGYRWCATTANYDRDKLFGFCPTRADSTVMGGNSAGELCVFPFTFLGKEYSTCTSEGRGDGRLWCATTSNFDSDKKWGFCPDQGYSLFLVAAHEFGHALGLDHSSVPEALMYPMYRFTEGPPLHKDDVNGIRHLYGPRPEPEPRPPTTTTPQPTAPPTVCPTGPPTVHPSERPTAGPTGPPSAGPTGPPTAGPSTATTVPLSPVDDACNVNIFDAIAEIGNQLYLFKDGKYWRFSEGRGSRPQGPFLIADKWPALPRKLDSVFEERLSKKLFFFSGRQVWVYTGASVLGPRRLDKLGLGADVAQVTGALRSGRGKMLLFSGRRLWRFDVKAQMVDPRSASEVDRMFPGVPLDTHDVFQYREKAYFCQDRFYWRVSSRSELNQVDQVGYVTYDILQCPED

| Ki ([1]; Table 1) [nM] | Ki ([2]; Table 1) [nM] | Ki ([3]; Table 1) [nM] | Ki ([4]; Table 1) [nM] | Ki ([1]; Table 2) [nM] | Ki ([2]; Table 2) [nM] | Ki ([3]; Table 2) [nM] | Ki ([4]; Table 2) [nM] | Structure (SMILES) |
| --- | --- | --- | --- | --- | --- | --- | --- | --- |
| 1750 | 0.04 | 0.08 | 237 | – | – | – | – | COCCN1CCC(C(=O)NO)(S(=O)(=O)c2ccc(-c3ccc(CCC(C)(F)F)cc3)cc2)CC1 [Example 63] |
| 8470 | 0.14 | 0.19 | 831 | – | – | – | – | COCCN1CCC(C(=O)NO)(S(=O)(=O)c2ccc(-c3ccc(CCC(C)(F)F)cn3)cc2)CC1 [Example 67] |
| 508 | 0.074 | 0.102 | 292 | – | – | – | – | O=C(NO)C1(S(=O)(=O)c2ccc(-c3ccc(OC(F)(F)C(F)F)cc3)cc2)CCN(C2CC2)CC1 [Example 40] |
| > 10000 | 0.21 | 0.38 | 1860 | – | – | – | – | COCCN1CCC(C(=O)NO)(S(=O)(=O)c2ccc(-c3ccc(CCC(F)(F)C(F)(F)F)cc3)cc2)CC1 [Example 46] |
| > 10000 | 1.17 | 2.8 | 5260 | – | – | – | – | COCCC(C(=O)NO)S(=O)(=O)c1ccc(-c2ccc(CCCC(F)(F)F)cc2)cc1 (centres unmarked) [Example 47] |
| 5110 | 0.375 | 0.937 | 1140 | – | – | – | – | O=C(NO)C1(S(=O)(=O)c2ccc(-c3ccc(CCC(F)(F)C(F)(F)F)cc3)cc2)CCOCC1 [Example 41] |
| > 10000 | 0.21 | 0.58 | 2580 | – | – | – | – | CCN1CCC(C(=O)NO)(S(=O)(=O)c2ccc(-c3ccc(CCC(F)(F)C(F)(F)F)cn3)cc2)CC1 [Example 52] |
| – | – | – | – | 1240 | 0.3 | 0.48 | 1050 | CN1CCC(C(=O)NO)(S(=O)(=O)c2ccc(-c3ccc(OC(F)(F)C(F)F)cc3)cc2)CC1 [Example 146] |
| 6870 | 0.29 | 0.43 | 1590 | – | – | – | – | COCCN1CCC(C(=O)NO)(S(=O)(=O)c2ccc(-c3ccc(CCCC(F)(F)F)cc3)cc2)CC1 [Example 43] |
| – | – | – | – | 842 | 0.1 | 0.09 | 144 | COCCN1CCC(C(=O)NO)(S(=O)(=O)c2ccc(-c3ccc(-c4ccccc4)cc3)cc2)CC1 [Example 152] |
| – | – | – | – | > 10000 | 4.22 | 9.95 | 1010 | CCN1CCC(C(=O)NO)(S(=O)(=O)c2ccc(-c3ccc(Oc4ccccc4)cc3)cc2)CC1 [Example 135] |
| – | – | – | – | > 10000 | 7.26 | 39.3 | 1020 | CCN1CCC(C(=O)NO)(S(=O)(=O)c2ccc(-c3noc(-c4ccncc4)n3)cc2)CC1 [Example 148] |
| 231 | 0.0611 | 0.142 | 235 | – | – | – | – | O=C(NO)C1(S(=O)(=O)c2ccc(-c3ccc(OC(F)(F)C(F)F)cc3)cc2)CCOCC1 [Example 68] |
| – | – | – | – | 327 | 0.02 | 0.03 | 56.7 | CCOc1ccc(-c2ccc(S(=O)(=O)C3(C(=O)NO)CCOCC3)cc2)cc1 [Example 163] |

More lines, now with the values behind:

| Structure (SMILES) | Ki ([1]; Table 1) [nM] | Ki ([2]; Table 1) [nM] | Ki ([3]; Table 1) [nM] | Ki ([4]; Table 1) [nM] | Ki ([1]; Table 2) [nM] | Ki ([2]; Table 2) [nM] | Ki ([3]; Table 2) [nM] | Ki ([4]; Table 2) [nM] |
| --- | --- | --- | --- | --- | --- | --- | --- | --- |
| CC(=O)Nc1cnc(-c2ccc(S(=O)(=O)C3(C(=O)NO)CCOCC3)cc2)cn1 [Example 76] | – | – | – | – | 9630 | 10.3 | 114 | 3480 |
| CC(F)(F)CCc1cnc(-c2ccc(S(=O)(=O)C3(C(=O)NO)CCN(C4CC4)CC3)cc2)cn1 [Example 66] | > 10000 | 0.79 | 0.31 | 4260 | – | – | – | – |
| O=C(NO)C1(S(=O)(=O)c2ccc(-c3ncccn3)cc2)CCOCC1 [Example 121] | – | – | – | – | 1600 | 46.8 | 57.9 | 1880 |
| O=C(NO)C1(S(=O)(=O)c2ccc(-c3cnc(CCC(F)(F)C(F)(F)F)cn3)cc2)CCOCC1 [Example 55] | > 10000 | 0.586 | 0.347 | 2560 | – | – | – | – |
| O=C(NO)C1(S(=O)(=O)c2ccc(-c3ccc(-c4ccccc4)cn3)cc2)CCN(C2CC2)CC1 [Example 151] | – | – | – | – | 391 | 0.15 | 0.09 | 120 |
| O=C(NO)C1(S(=O)(=O)c2ccc(-c3cnc(C4CCCC4)cn3)cc2)CCOCC1 [Example 162] | – | – | – | – | > 10000 | 3.11 | 34 | 7350 |
| O=C(NO)C1(S(=O)(=O)c2ccc(-c3ccc(-n4cncn4)cc3)cc2)CCOCC1 [Example 126] | – | – | – | – | 1240 | 0.18 | 1.92 | 905 |
| O=C(NO)C1(S(=O)(=O)c2ccc(-c3cnc(OCC(F)(F)C(F)(F)F)cn3)cc2)CCN(C2CC2)CC1 [Example 156] | – | – | – | – | 7470 | 0.39 | 0.48 | 1140 |
| O=C(NO)C1(S(=O)(=O)c2ccc(-c3ccc(CCC(F)(C(F)(F)F)C(F)(F)F)cn3)cc2)CCOCC1 [Example 133] | – | – | – | – | 7400 | 11.9 | 35.2 | 4150 |
| O=C(NO)C1(S(=O)(=O)c2ccc(-c3cnc(CCC(F)(F)F)cn3)cc2)CCOCC1 [Example 62] | > 10000 | 0.88 | 1.83 | 2930 | – | – | – | – |
| O=C(NO)C1(S(=O)(=O)c2ccc(-c3cnc(-c4cccs4)cn3)cc2)CCOCC1 [Example 160] | – | – | – | – | > 10000 | 2.01 | 3.16 | > 10000 |
| CCc1csc(Nc2ccc(-c3ccc(S(=O)(=O)C4(C(=O)NO)CCOCC4)cc3)cc2)n1 [Example 124] | – | – | – | – | > 2500 | 32.9 | 191 | 6230 |
